GI50 and TGI data for 28 compounds are collected here from PubChem BioAssay (NCI).

Several values for one entry are separate records, joined by “and”; a condition that tells them apart may be missing. Equal values may be shown once.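 In this assay, cells in 96-well plates receive the compound at five concentrations for 48 hours. Endpoints are linearly interpolated between the surrounding concentrations. Here, GI50 denotes the concentration required for 50% inhibition of growth. TGI denotes the concentration required for complete inhibition of growth.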 A value given as a limit tells only on which side of the number the result lay.

The subject of one assay is SN12C renal. The assay can be described thus: NCI-60 cell line screen, 48 h.
Consider `C=C1C(=O)O[C@H]2[C@H]1CC/C(COC(=O)c1c[nH]c3ccccc13)=C\CC[C@@]1(C)O[C@@H]21`, for which the GI50 was 0.237 µM and the TGI stood at 0.623 µM.
With `C/C(=N\NC(=S)NC(CCC(=O)O)C(=O)O)c1ccccn1` (stereo not given), the TGI was more than 100 µM.
The compound `Brc1ccccc1C1SCc2nc3ccccc3n21` (stereo not given) returned a TGI of 25.8 µM.
The same measure, in the same setting: next, `O=C(/C=C\c1ccc(Cl)c(Cl)c1)c1ccc(Cl)cc1Cl`: more than 100 µM.
For `ClCc1cccc(Cn2cnc3ncnc(Cl)c32)c1`, the GI50 was 7.02 µM and the TGI worked out at 20.2 µM.
Take `CCOC(=O)C(=C=C=C(c1ccccc1)c1ccccc1)C(=O)OCC`: the TGI is 42.4 µM.
Still for that read-out and setting: to `Cn1c2ccccc2c2cc(-c3ccccc3)c3c(c21)C(=O)c1ccccc1C3=O` belongs more than 100 µM.
The same measure, in the same setting: next, `CN(C)c1ccc(/C=C(\NC(=O)c2ccccc2)c2nc3ncncc3[nH]2)cc1`: more than 100 µM.
As for `CC1=CC(O)(c2ccc(-c3ccccc3Cl)cc2)OC1=O` (stereo not given), the TGI was more than 100 µM.
The same measure, in the same setting: next, `CCOC(=O)CC(=O)ON(C)C(C)=O`: more than 100 µM; `CCc1cc(Cc2cc(CC)c(NC(=O)C(=O)Cc3ccccn3)c(CC)c2Cl)c(Cl)c(CC)c1NC(=O)C(=O)Cc1ccccn1`: more than 100 µM; `CC(C)OP(=O)(OC(C)C)C(=NCCN=C(NNc1ccc([N+](=O)[O-])cc1)P(=O)(OC(C)C)OC(C)C)NNc1ccc([N+](=O)[O-])cc1`: more than 100 µM.
The compound `COC(OC)C(C)CC(=O)N(C)C` (stereo not given) came in with a TGI of more than 100 µM.
The compound `O=S1(=O)OCCOS(=O)(=O)C1Br` registered a TGI of more than 100 µM.
Same read-out and setting: next, `CC(C)=Cc1cc(C(=O)Nc2ccc(Cl)c(Cl)c2)nc(N)n1`: more than 100 µM; `CC(=O)/C(=C\c1cccc([N+](=O)[O-])c1)C(=O)Nc1ccccc1C`: more than 100 µM; `Clc1ccc(C(c2ccc(Cl)cc2)c2ccccn2)cc1`: 31.7 µM.
The same measure, in the same setting: to `C[Si](C)(C)C1(Sc2ccccc2)SCCCS1` belongs more than 100 µM; to `O=c1cc(-c2ccccc2)oc2cc(OCCCOc3ccc4c(=O)cc(-c5ccccc5)oc4c3)ccc12`, more than 100 µM.

For a further assay, the system named is SW-620 colon. The assay can be described thus: NCI-60 cell line screen, 48 h.
For the compound `CCOC(=O)NC(=O)c1cn(CCCO)c(=O)[nH]c1=O`, the TGI was more than 100 µM.
On the same count and under the same terms, to `CCN1c2ccccc2C(C(SC)S(=O)(=O)c2ccc(C)cc2)c2c1[nH]c(=O)n(C)c2=O` (stereo not given) belongs more than 100 µM.
Still for that read-out and setting: to `COc1ccc(S(=O)(=O)NNS(C)(=O)=O)cc1` belongs more than 100 µM; to `CC(=O)OC1COC(n2ccc3cc(Br)c([N+](=O)[O-])cc32)C(OC(C)=O)C1OC(C)=O` (stereo not given), more than 100 µM.
Same read-out and setting: next, `CCCCCCCCC/C=C1\CCC(CN2CCOCC2)C1=O` (stereo not given): 5.43 µM.
`CCCCCCN(CCCCCC)C(=O)Cc1c2n(c3ccccc13)Cc1ccccc1-2`: the TGI was more than 100 µM.
Take `C=C1C(=O)O[C@H]2[C@H]1CC/C(COC(=O)c1c[nH]c3ccccc13)=C\CC[C@@]1(C)O[C@@H]21`: the GI50 is 0.234 µM and the TGI was found to be 0.752 µM.
In turn, `C/C(=N\NC(=S)NC(CCC(=O)O)C(=O)O)c1ccccn1` (stereo not given) gave a TGI of more than 100 µM.
The same measure, in the same setting: to `Brc1ccccc1C1SCc2nc3ccccc3n21` (stereo not given) belongs more than 100 µM; to `O=C(/C=C\c1ccc(Cl)c(Cl)c1)c1ccc(Cl)cc1Cl`, 8.47 µM and 18.9 µM.
Turning to `ClCc1cccc(Cn2cnc3ncnc(Cl)c32)c1`, the GI50 was 15.2 µM and the TGI came to 32.2 µM.
`CCOC(=O)C(=C=C=C(c1ccccc1)c1ccccc1)C(=O)OCC` returned a TGI of 51.2 µM.
`Cn1c2ccccc2c2cc(-c3ccccc3)c3c(c21)C(=O)c1ccccc1C3=O` showed a TGI of 66.5 µM.
For `c1ccc(COc2cccc3ccc[n+](Cc4ccccc4)c23)cc1`, the TGI is more than 100 µM.
On the same count and under the same terms, to `CN(C)c1ccc(/C=C(\NC(=O)c2ccccc2)c2nc3ncncc3[nH]2)cc1` belongs more than 100 µM; to `CC1=CC(O)(c2ccc(-c3ccccc3Cl)cc2)OC1=O` (stereo not given), more than 100 µM; to `CCOC(=O)CC(=O)ON(C)C(C)=O`, more than 100 µM.
On the same count and under the same terms, to `CCc1cc(Cc2cc(CC)c(NC(=O)C(=O)Cc3ccccn3)c(CC)c2Cl)c(Cl)c(CC)c1NC(=O)C(=O)Cc1ccccn1` belongs 31.9 µM; to `CC(C)OP(=O)(OC(C)C)C(=NCCN=C(NNc1ccc([N+](=O)[O-])cc1)P(=O)(OC(C)C)OC(C)C)NNc1ccc([N+](=O)[O-])cc1`, more than 100 µM; to `COC(OC)C(C)CC(=O)N(C)C` (stereo not given), more than 100 µM.
Same read-out and setting: to `O=S1(=O)OCCOS(=O)(=O)C1Br` belongs more than 100 µM.
Consider `CC(C)=Cc1cc(C(=O)Nc2ccc(Cl)c(Cl)c2)nc(N)n1`, for which the TGI is more than 100 µM.
The same measure, in the same setting: next, `C#CC1(O)CCC2C3CCc4cc(Oc5nc(F)nc(-c6c7ccccc7c7sc8ccccc8n67)n5)ccc4C3CC[C@@]21C` (stereo not given in full): more than 100 µM.
The same measure, in the same setting: next, `CC(=O)/C(=C\c1cccc([N+](=O)[O-])c1)C(=O)Nc1ccccc1C`: more than 100 µM; `Clc1ccc(C(c2ccc(Cl)cc2)c2ccccn2)cc1`: 44 µM; `C[Si](C)(C)C1(Sc2ccccc2)SCCCS1`: more than 100 µM.
On the same count and under the same terms, next, `O=c1cc(-c2ccccc2)oc2cc(OCCCOc3ccc4c(=O)cc(-c5ccccc5)oc4c3)ccc12`: more than 100 µM.

The test system of another assay is K-562 leukemia. The assay can be described thus: NCI-60 cell line screen, 48 h.
In turn, `CCOC(=O)NC(=O)c1cn(CCCO)c(=O)[nH]c1=O` registered a TGI of more than 100 µM.
Compound `CCN1c2ccccc2C(C(SC)S(=O)(=O)c2ccc(C)cc2)c2c1[nH]c(=O)n(C)c2=O` (stereo not given) displayed a TGI of more than 100 µM.
On the same count and under the same terms, next, `COc1ccc(S(=O)(=O)NNS(C)(=O)=O)cc1`: more than 100 µM.
Still for that read-out and setting: to `CC(=O)OC1COC(n2ccc3cc(Br)c([N+](=O)[O-])cc32)C(OC(C)=O)C1OC(C)=O` (stereo not given) belongs more than 100 µM.
The same measure, in the same setting: next, `Cn1cnc([N+](=O)[O-])c1Sc1nc2ccccc2[nH]1`: more than 100 µM.
Consider `CCCCCCCCC/C=C1\CCC(CN2CCOCC2)C1=O` (stereo not given), for which the TGI came out at 15.6 µM.
On the same count and under the same terms, to `CCCCCCN(CCCCCC)C(=O)Cc1c2n(c3ccccc13)Cc1ccccc1-2` belongs more than 100 µM.
As to `C=C1C(=O)O[C@H]2[C@H]1CC/C(COC(=O)c1c[nH]c3ccccc13)=C\CC[C@@]1(C)O[C@@H]21`, the GI50 is 0.279 µM and the TGI stood at 1.62 µM.
`C/C(=N\NC(=S)NC(CCC(=O)O)C(=O)O)c1ccccn1` (stereo not given) displayed a TGI of more than 100 µM.
The same measure, in the same setting: to `Brc1ccccc1C1SCc2nc3ccccc3n21` (stereo not given) belongs more than 100 µM.
For `O=C(/C=C\c1ccc(Cl)c(Cl)c1)c1ccc(Cl)cc1Cl`, the GI50 was 1.61 µM and the TGI turned out to be 26 µM.
The corresponding values for `ClCc1cccc(Cn2cnc3ncnc(Cl)c32)c1` are 16.6 µM and 48.1 µM.
